The target in the assay is T1, human CXCR3 (N-delta 4) (Homo sapiens, UniProt P49682).
T1 construct: CD8 leader (N); Flag; expressed in transfected cells; membranes prepared
T1 sequence (P49682 5-368 limits assumed): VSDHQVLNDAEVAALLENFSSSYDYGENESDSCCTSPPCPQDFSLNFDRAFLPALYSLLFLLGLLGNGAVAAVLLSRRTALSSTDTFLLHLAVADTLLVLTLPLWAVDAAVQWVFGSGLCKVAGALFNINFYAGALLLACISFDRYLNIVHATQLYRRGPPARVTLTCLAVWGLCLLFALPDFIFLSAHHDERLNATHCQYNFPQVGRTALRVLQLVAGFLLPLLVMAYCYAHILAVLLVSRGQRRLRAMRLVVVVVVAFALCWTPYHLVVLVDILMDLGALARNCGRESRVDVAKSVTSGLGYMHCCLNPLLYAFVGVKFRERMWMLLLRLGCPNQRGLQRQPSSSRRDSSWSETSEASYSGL
The assay can be described thus: Human CXCR3 (N-delta 4) Scintillation Proximity Assay (SPA), [125I] IP-10 binding to Ba/F3-hCXCR3 membranes. As to conditions: IC50 rating, Table 1; read-out: IC50. (In general: Scintillation proximity formats need no separation of bound from free tracer.)

On to `CC[C@H]1CN(c2nc(N)c(C(N)=O)nc2Cl)CCN1C1CCN(Cc2ccc(C#N)cc2)CC1` [compound 16], for which the IC50 is under 25 nM.

`CC[C@H]1CN(c2nc(N)c(C(=O)NCCNC(N)=O)nc2Cl)CCN1C1CCN(C(CO)c2ccc(C#N)cc2)CC1` (some centres unmarked) [compound 232]: the IC50 lay within 25 to 100 nM.

Regarding `CC[C@H]1CN(c2nc(N)c(C(=O)NCCO)nc2Cl)CCN1C1CCN(Cc2ccc(OC(F)(F)F)cc2OCC(N)=O)CC1` [compound 174], the IC50 was under 25 nM.

Regarding `CC[C@H]1CN(c2ncc(C(=O)NC3CC3)nc2C)CCN1C1CCN([C@@H](CO)c2ccc(F)c(F)c2)CC1` [compound 471], the IC50 was under 25 nM.

For `CC[C@H]1CN(c2nc(N)c(C(=O)NC3CC3)nc2Cl)CCN1C1CCN(Cc2ccc(C#N)cc2OCCOC)CC1` [compound 89], the IC50 was under 25 nM.

Take `CC[C@H]1CN(c2nc(N)c(C(=O)NCC(F)(F)F)nc2Cl)CCN1C1CCN(Cc2ccc(Cl)cc2)CC1` [compound 216]: the IC50 was under 25 nM.

As for `CC[C@H]1CN(c2nc(N)c(C(=O)NCCO)nc2Cl)CCN1C1CCN([C@H](CO)c2ccc(F)c(F)c2)CC1` [compound 182], the half-inhibitory concentration (IC50) fell in the range of 25 to 100 nM.

With `CC[C@H]1CN(c2nc(N)c(C(N)=O)nc2Cl)CCN1C1CCN(Cc2ccc(Cl)cc2CC#N)CC1` [compound 33], the IC50 was in the range of 25 to 100 nM.

`CC[C@H]1CN(c2nc(N)c(C(=O)N[C@H]3CCOC3=O)nc2Cl)CCN1C1CCN(Cc2ccc(Cl)cc2)CC1` [compound 279]: the IC50 was under 25 nM.

In the case of `CC[C@H]1CN(c2nc(N)c(C(=O)NC)nc2Cl)CCN1C1CCN(C(=O)c2ccc(Cl)cc2N)CC1` [compound 330], the IC50 is under 25 nM.

As for `CC[C@H]1CN(c2nc(N)c(C(N)=O)nc2Cl)CCN1C1CCN(Cc2ccc(Cl)cc2C#N)CC1` [compound 20], the IC50 was under 25 nM.

On to `CC[C@H]1CN(c2nc(N)c(C(=O)NCCO)nc2Cl)CCN1C1CCN(Cc2ccc(Cl)c(F)c2O)CC1` [compound 155], for which the IC50 is under 25 nM.

`CC[C@H]1CN(c2ncc(C(=O)NC3CC3)nc2C)CCN1C1CCN([C@H](CO)c2ccc(F)c(F)c2)CC1` [compound 472]: the IC50 was under 25 nM.

Take `CC[C@H]1CN(c2nc(N)c(C(=O)NCCO)nc2Cl)CCN1C1CCN(Cc2cc(F)c(Cl)cc2OCCOC)CC1` [compound 143]: the IC50 is under 25 nM.

As to `CC[C@H]1CN(c2nc(N)c(C(=O)NCCO)nc2Cl)CCN1C1CCN(Cc2ccc(Cl)cc2/C(N)=N\O)CC1` [compound 108], the IC50 is under 25 nM.

Consider `CC[C@H]1CN(c2nc(N)c(C(=O)NCCO)nc2Cl)CCN1C1CCN(Cc2ccc(Cl)cc2S(C)(=O)=O)CC1` [compound 422], for which the IC50 was under 25 nM.

In the case of `CC[C@H]1CN(c2nc(N)c(C(=O)NC[C@H](C)O)nc2Cl)CCN1C1CCN(C(=O)c2ccc(Cl)cc2)CC1` [compound 319], the IC50 was 25 to 100 nM.

`CC[C@H]1CN(c2nc(N)c(C(=O)NC3CC3)nc2Cl)CCN1C1CCN(C(CCNC(=O)OC(C)(C)C)c2ccc(Cl)cc2)CC1` (some centres unmarked) [compound 96]: the 50% inhibitory concentration (IC50) is over 100 nM.

Consider `CC[C@H]1CN(c2nc(N)c(C(=O)NC)nc2Cl)CCN1C1(C)CCN(Cc2ccc(Cl)cc2C(=O)NC)CC1` [compound 81], for which the IC50 is over 100 nM.

In the case of `CC[C@H]1CN(c2nc(N)c(C(=O)NC(=N)NC)nc2Cl)CCN1C1CCN(Cc2ccc(Cl)cc2)CC1` [compound 390], the IC50 was under 25 nM.

Take `CC[C@H]1CN(c2nc(N)c(C(=O)NCCOCCO)nc2Cl)CCN1C1CCN(C(=O)c2ccc(Cl)cc2)CC1` [compound 327]: the IC50 is over 100 nM.

As to `CC[C@H]1CN(c2nc(N)c(C(=O)NCCO)nc2Cl)CCN1C1CCN(Cc2ccc(Cl)cc2C(=O)OC)CC1` [compound 142], the IC50 was under 25 nM.

Consider `CC[C@H]1CN(c2nc(N)c(C(N)=O)nc2Cl)CCN1C1CCN(Cc2ccc(Cl)cc2NC(=O)C(C)O)CC1` (some centres unmarked) [compound 377], for which the IC50 lay within 25 to 100 nM.

For `CC[C@H]1CN(c2nc(N)c(C(=O)NCCO)nc2Cl)CCN1C1CCN(C(=O)c2ccc(F)c(F)c2N)CC1` [compound 348], the IC50 lay in the range of 25 to 100 nM.

Regarding `CC[C@H]1CN(c2nc(N)c(C(=O)NC)nc2Cl)CCN1C1CCN(C(CO)c2ccc(Cl)cc2)CC1` (some centres unmarked) [compound 63], the IC50 was under 25 nM.

As to `CC[C@H]1CN(c2nc(N)c(C(=O)NC)nc2Cl)CCN1C1CCN(C(=O)C2Cc3ccccc3C2)CC1` [compound 368], the IC50 is over 100 nM.

For the compound `CC[C@H]1CN(c2nc(N)c(C(=O)NCCOC)nc2Cl)CCN1C1CCN(Cc2ccc(Cl)cc2)CC1` [compound 268], the IC50 was under 25 nM.

Regarding `CC[C@H]1CN(c2ncc(C(=O)NC)nc2C)CCN1C1CCN(C(=O)c2ccc(Cl)cc2F)CC1` [compound 455], the IC50 is under 25 nM.

`CC[C@H]1CN(c2nc(N)c(C(N)=O)nc2Cl)CCN1C1CCN(Cc2ccc(Cl)cc2CC(=O)NCC(C)O)CC1` (some centres unmarked) [compound 21]: the IC50 was under 25 nM.

As for `CC[C@H]1CN(c2nc(N)c(C(=O)NCCCNS(C)(=O)=O)nc2Cl)CCN1C1CCN(Cc2ccc(C#N)cc2)CC1` [compound 226], the IC50 is over 100 nM.

Turning to `CC[C@H]1CN(c2nc(N)c(C(=O)NC)nc2Cl)CCN1C1CCN(C(=O)C2(N)CCc3ccccc3C2)CC1` (some centres unmarked) [compound 369], the IC50 was over 100 nM.

As to `CC[C@H]1CN(c2nc(N)c(C(=O)NCCO)nc2Cl)CCN1C1CCN([C@H](CO)c2ccc(Cl)cc2)CC1` [compound 128], the IC50 is under 25 nM.

`CC[C@H]1CN(c2nc(N)c(C(N)=O)nc2Cl)CCN1C1CCN(Cc2ccc(Cl)cc2C(O)C(=O)N(C)C)CC1` (some centres unmarked) [compound 18]: the IC50 is under 25 nM.

For `CC[C@H]1CN(c2nc(N)c(C(=O)NC3CC3)nc2Cl)CCN1C1CCN(Cc2ccc(OCC(N)=O)cc2)CC1` [compound 97], the IC50 is over 100 nM.

As for `CC[C@H]1CN(c2nc(N)c(C(=O)NCCO)nc2Cl)CCN1C1CCN(C(=O)c2ccc(Cl)cc2OC)CC1` [compound 362], the IC50 is over 100 nM.

Consider `CC[C@H]1CN(c2ncc(C(=O)NC)nc2C)CCN1C1CCN(C(=O)c2ccc(F)cc2)CC1` [compound 435], for which the IC50 is under 25 nM.

On to `CC[C@H]1CN(c2ncc(C(=O)NC)nc2C(F)(F)F)CCN1C1CCN(C(=O)c2ccc(Cl)cc2)CC1` [compound 477], for which the IC50 was under 25 nM.

As for `CC[C@H]1CN(c2nc(N)c(C(=O)NCCCNS(=O)(=O)C(F)(F)F)nc2Cl)CCN1C1CCN(Cc2ccc(C#N)cc2)CC1` [compound 225], the IC50 is over 100 nM.

In the case of `CC[C@H]1CN(c2nc(N)c(C(=O)NC[C@@H](C)O)nc2Cl)CCN1C1CCN(Cc2ccc(Cl)cc2CCNS(C)(=O)=O)CC1` [compound 223], the IC50 was under 25 nM.

On to `CC[C@H]1CN(c2nc(N)c(C(N)=O)nc2Cl)CCN1C1CCN(Cc2ccc(Cl)cc2C(O)C(=O)N(C)C)CC1` (some centres unmarked) [compound 378], for which the IC50 is under 25 nM.

Consider `CC[C@H]1CN(c2nc(N)c(C(=O)NC)nc2Cl)CCN1C1CCN(C(=O)c2ccc(-n3cccn3)cc2)CC1` [compound 353], for which the IC50 is over 100 nM.

Take `CC[C@H]1CN(c2nc(N)c(C(N)=O)nc2Cl)CCN1C1CCN([C@@H](C(=O)O)c2ccc(Cl)cc2)CC1` [compound 40]: the IC50 lay within 25 to 100 nM.

Regarding `CC[C@H]1CN(c2nc(N)c(C(N)=O)nc2Cl)CCN1C1CCN(C(=O)c2ccc(Cl)cc2CC(N)=O)CC1` [compound 357], the IC50 was over 100 nM.

For the compound `CC[C@H]1CN(c2nc(N)c(C(=O)NCCNS(C)(=O)=O)nc2Cl)CCN1C1CCN(Cc2ccc(Cl)cc2C#N)CC1` [compound 253], the IC50 fell in the range of 25 to 100 nM.

By IC50 is commonly meant the concentration at which inhibition is half-maximal.

These data come from patent US7868005B2, “Pyrazinyl substituted piperazine-piperidines with CXCR3 antagonist activity” (Schering Corporation, priority 2005, dated 2011).
